The test system of assay [1] is Ctenocephalides felis. Put plainly: Topical treatment in-vivo test with cat flea on rats. Conditions: topical spot-on. The method, then:
(§1) Topical Treatment In-Vivo Test with American Dog Tick Nymph and Cat Flea on Rats
(§2) Type of study and overall study design: The method is a randomized non-blinded efficacy study in accordance with European animal welfare requirements. Rats (Rattus norvegicus) were randomized based on pre-treatment flea counts. The efficacy of treatment was determined by comparison of the flea and tick counts of different treatment groups versus the placebo-treated control group. The experimental unit was the individual study animal.
(§3) Method and route of administration: The compound was applied in a suitable solvent and carrier (more specifically, added to the following mixture: 33.3% by weight propylene carbonate, […] N-methylpyrrolidone, 0.1% by weight BHA, 0.05% by weight BHT) considering the individual body weight as topical spot-on between the shoulder blades directly onto the skin.
(§4) Experimental infestation: On the day of treatment and weekly thereafter, 30 ticks (D. variabilis nymphs) were released onto the back of each rat, and 30 fleas (C. felis) were released onto the back of each rat 24 h later.
(§5) Tick and Flea counting: Rats were thoroughly examined and ticks and fleas were manually removed 48 h (+4 h) after tick infestation and 24 h after flea infestation. Live fleas and live attached engorged ticks were counted. In non-evident cases, engorgement status was evaluated by squeezing the tick on a filter paper to find traces of blood as sign for engorgement.

In assay [2] the test system is Dermacentor variabilis. Kind of assay: Systemic treatment in-vivo test with American dog tick nymph on rats. The following applies: intraperitoneal injection; for inhibition in vivo at 2 mg/kg / inhibition in vivo at 10 mg/kg: Dermacentor variabilis, ip. The method, then:
(§6) Systemic Treatment In-Vivo Test with American Dog Tick Nymph and Cat Flea on Rats
(§7) Type of study and overall study design: The method is a randomized non-blinded efficacy study in accordance with European animal welfare requirements. Rats (Rattus norvegicus) were randomized based on pre-treatment flea counts. The efficacy of treatment was determined by comparison of the flea and tick counts of different treatment groups versus the placebo-treated control group. The experimental unit was the individual study animal. Method and route of administration: The compound was applied in a suitable solvent and carrier (more specifically, added to glycerol formal; in case of poorly soluble compounds, a solvent mixture with up to 25% by volume of N-methyl pyrrolidone may be used.) considering the individual body weight as an intraperitoneal injection.
as §4
(§8) Tick and Flea counting: Rats were thoroughly examined and ticks and fleas were manually removed 48 h (±4 h) after tick infestation and 24 h after flea infestation. Live fleas and live attached engorged ticks were counted. In non-evident cases, engorgement status was evaluated by squeezing the tick on a filter paper to find traces of blood as sign for engorgement.

Assay [3] has as its system Ctenocephalides felis. Put plainly: Systemic treatment in-vivo test with cat flea on rats. The following applies: intraperitoneal injection; for inhibition in vivo at 2 mg/kg / inhibition in vivo at 10 mg/kg: Ctenocephalides felis, ip. The method, then:
as §6, §7, §4, §8

Assay [4] concerns Dermacentor variabilis. Kind of assay: Topical treatment in-vivo test with American dog tick nymph on rats. Conditions: topical spot-on, 25 mg/kg. Here is the method:
as §1, §2, §3, §4, §5

Read-outs that look alike come from different tables or passages of the source.

Regarding `O=C(CNC(=O)c1ccc(C2=NOC(c3cc(Cl)cc(C(F)(F)F)c3)(C(F)(F)F)C2)c2ccccc12)NCC(F)(F)F` (stereo not drawn) [Afoxolaner, afoxolaner, reference compound], the “Geometric mean percent reduction in live flea (Ctenocephalides felis) counts compared to untreated control rats” value in assay [1] (10 mg/kg, SD 2) is 100%; in assay [1] (10 mg/kg, SD 9), 99%; in assay [1] (10 mg/kg, SD 16), 51%; in assay [1] (10 mg/kg, SD 23), 16%; in assay [3] (2 mg/kg, SD 2), 69%; in assay [3] (2 mg/kg, SD 9), 20%. For the same molecule, the “Geometric mean percent reduction in live flea (Ctenocephalides felis) counts compared to untreated control rats” value in assay [3] (2 mg/kg, SD 16) was determined as 48%; in assay [3] (10 mg/kg, SD 2), 100%; in assay [3] (10 mg/kg, SD 9), 97%; in assay [3] (10 mg/kg, SD 16) it was 60%; in assay [3] (10 mg/kg, SD 23), 0%. Besides, the “Geometric mean percent reduction in live tick (Dermacentor variabilis) counts compared to untreated control rats” value in assay [2] (2 mg/kg, SD 2) came to 86%; in assay [2] (2 mg/kg, SD 9) it was 53%; in assay [2] (2 mg/kg, SD 16), 5%; in assay [2] (10 mg/kg, SD 2), 100%; in assay [2] (10 mg/kg, SD 9), 10%; in assay [2] (10 mg/kg, SD 16), 78%. For the same molecule, the “Geometric mean percent reduction in live tick (Dermacentor variabilis) counts compared to untreated control rats” value in assay [2] (10 mg/kg, SD 23) was 0%.
As to `CN(C(=O)c1ccccc1)c1cccc(C(=O)Nc2c(Br)cc(C(F)(C(F)(F)F)C(F)(F)F)cc2C(F)(F)F)c1F` [Compound (B), reference compound], the “Geometric mean percent reduction in live flea (Ctenocephalides felis) counts compared to untreated control rats” value in assay [1] (25 mg/kg, SD 2) is 84%; in assay [1] (25 mg/kg, SD 9), 72%; in assay [1] (25 mg/kg, SD 16), 45%. The inhibition in vivo at 2 mg/kg is 75% in assay [2] (2 mg/kg, SD 2, read-out: Geometric mean percent reduction in live tick (Dermacentor variabilis) counts compared to untreated control rats); 63% in assay [2] (2 mg/kg, SD 9, read-out: Geometric mean percent reduction in live tick (Dermacentor variabilis) counts compared to untreated control rats); 0% in assay [2] (2 mg/kg, SD 16, read-out: Geometric mean percent reduction in live tick (Dermacentor variabilis) counts compared to untreated control rats); 97% in assay [3] (2 mg/kg, SD 2, read-out: Geometric mean percent reduction in live flea (Ctenocephalides felis) counts compared to untreated control rats); 32% in assay [3] (2 mg/kg, SD 9, read-out: Geometric mean percent reduction in live flea (Ctenocephalides felis) counts compared to untreated control rats). The inhibition in vivo at 10 mg/kg in assay [2] (10 mg/kg, SD 2, read-out: Geometric mean percent reduction in live tick (Dermacentor variabilis) counts compared to untreated control rats) worked out at 100%; in assay [2] (10 mg/kg, SD 9, read-out: Geometric mean percent reduction in live tick (Dermacentor variabilis) counts compared to untreated control rats), 11%; in assay [2] (10 mg/kg, SD 16, read-out: Geometric mean percent reduction in live tick (Dermacentor variabilis) counts compared to untreated control rats), 2%; in assay [3] (10 mg/kg, SD 2, read-out: Geometric mean percent reduction in live flea (Ctenocephalides felis) counts compared to untreated control rats), 100%; in assay [3] (10 mg/kg, SD 9, read-out: Geometric mean percent reduction in live flea (Ctenocephalides felis) counts compared to untreated control rats) it was 53%; in assay [3] (10 mg/kg, SD 16, read-out: Geometric mean percent reduction in live flea (Ctenocephalides felis) counts compared to untreated control rats), 6%. Besides, the “Geometric mean percent reduction in live tick (Dermacentor variabilis) counts compared to untreated control rats” value in assay [4] (SD 2) is 58%; in assay [4] (SD 9) it was 85%; in assay [4] (SD 16) it was 65%; in assay [4] (SD 23), 4%.
